Reference: patent publication US4564615A, “Immunoactivator” (SS Pharmaceutical Co., Ltd., priority 1980, dated 1986)
Counter-ions that a name gives are not always drawn.

Assays:
splenic cells = assay: Action on blastogenesis of splenic cells (3H-thymidine incorporation); format: cell-based, CDF1 mice (female, 10 weeks old)
Protocol: (1) The splenic cells of CDF1 mice (female, 10 weeks old) were collected and were cultured in a 10% foetal calf serum-added RPMI 1640 medium adding a lectin such as Concanavalin A (Con A) or Lipopolysaccharide (LPS) and a compound of the invention (Compound No. 3 in Table 1), and the blasting effect was determined using as an index incorporation of ^3 H-thymidine into the cultured splenic cells.
(2) The splenic cells of the mouse to which had been added different amounts of Con A or LPS and then 10 μg/ml of the inventive compound (Compound No. 3 in Table 3) were cultured to know the effect on the blasting reaction. […] Further, in order to know whichever lectin is greatly influenced by the compound of the invention for the potentiation, a stimulatory index* was calculated from the results of FIGS. 3a and 3b. […] [formula]

[1] = system: antibody-producing cells in the spleen; assay: IgM antibody producing action in mice, time of administration (FIG. 1); format: in vivo, CDF1 mice (male, 12 weeks old)
Protocol: (ii) Groups of CDF1 mice (male, 12 weeks old), each group consisting of 5 mice, were each venously injected with 1×10^8 sheep red blood cells for immunization. The thus injected mice were each orally dosed with a compound of the invention (compound No. 3 in Table 1) at the same day as of the injection (0 day), 1 day, 2 days and 3 days after the injection in an amount of 100 μg/mouse. Four days after the immunization, the number of antibody-producing cells in the spleen cells of each mouse of each group was determined.

peritoneal macrophages = assay: Action on phagocytosis of peritoneal macrophage; format: in vivo, CDF1 mice (female, 8 weeks old); conditions: for T/C (phagocytosis of macrophage): peritoneal injection
Protocol: The action of the inventive compound on the phagocytosis of macrophage was investigated.
CDF1 mice (female, 8 weeks old) were each peritoneally injected with 2 ml of a thioglycolate medium to allow the peritoneal macrophages to be released. Four days after the injection, a compound of the invention (Compound No. 3 in Table 1) was peritoneally injected into each mouse in an amount ranging from 1 μg to 1 mg/mouse. 18 hours after the injection, the mice of each group was peritoneally washed with the Dulbecco phosphate buffer solution to collect the peritoneal macrophages, which were then suspended in a serum-free Dulbecco phosphate buffer solution and the suspension was placed in plastic petri dishes, followed by keeping in a 5% carbonic acid gas culture container at 37° C. for 2 hours to obtain adhesive cells. To the respective petri dishes containing the adhesive cells was added a solution of a germ Saccharomyces cervisiae. After having kept the temperature for 30 minutes, the germ solution was removed, followed by culturing 4 hours, washing, and subjecting to the Giemsa staining. Then, the number of cells phagocytizing the germ were counted under microscope to determine the effect of the compound*.
*M. Ishizuka; S. Fukasawa, T. Masuda, J. Sato, N. Kanbayashi, T. Takeuchi & H. Umezawa; J. Antibiotics 32: 330-339, 1980.

[2] = system: delayed-type hypersensitivity; assay: Action on delayed-type hypersensitivity (foot sole swelling, SRBC antigen); format: in vivo, CDF1 mice (male, 12 weeks old); conditions: oral; for Thickness of Sole Swelling (± S.D.): 24 hours after second injection
Description: In order to evaluate an action of compounds of the invention on cellular immunity which plays the most important role on the protection reaction against viral infection, the action was investigated according to the method of Lagrange et al.* using as an index the effect on the delayed-type hypersensitivity in which sheep red blood cells were provided as antigen**.
*Lagrange, P. H., G. B. Mackaness & T. E. Miller: J. Exp. Med., 139: 528-542, 1974.
**Ishizuka, M. T. Matsuda, N. Kanbayashi, S. Fukasawa, T. Takeuchi, T. Aoyagi & H. Umezawa: J. Antibiotics 33: 642-652, 1980.
That is, groups of CDF1 mice (male, 12 weeks old), each group consisting of 5 mice, were each immunized by being subcutaneously injected with 10^8 sheep red blood cells at the soles of right hind leg and were simultaneously orally dosed with 4 μg-1 mg/mouse of a compound of the invention (compound No. 3 in Table 1). Four days after the administration, 10^8 sheep red blood cells were subcutaneously injected into each mouse at the sole of the left hind leg, thereby causing the reaction. 24 hours after the injection, the thickness of the foot sole was measured and degrees of swelling of the soles were compared with one another to judge the action.

myeloid cells = assay: Action on production of glanulocytic macrophage colony (CFU-C) at myeloid cell culture; format: cell-based, mouse
Protocol: In accordance with the methods of Metcalf* and Stanley et al.**, the myeloid cells of mouse were cultured in soft agar to which a colony stimulating factor (CSF)*** and different amounts of a compound of the invention (Compound No. 3 in Table 1) to investigate the action on the glanulocytic macrophage colony.
**Stanley, E. R., M. Cifone, P. M. Heard & V. Deffendi: J. Exp. Med. 143: 631-647, 1976.
***The mouse serum obtained 6 hours after venous injection of 5 μg of LPS into CDF1 mouse was added in an amount of 0.0125 ml as the colony stimulating factor.

[3] = system: antibody-producing cells in the spleen; assay: IgM antibody producing action in mice, dose dependence (antibody-producing cells/spleen, SRBC immunization); format: in vivo, CDF1 mice (male, 10 weeks old); conditions: oral; for Number of antibody-producing cells/spleen (average value): 4 days after administration
mouse's spleen cells = assay: Antibody-producing action based on cell culture (Mishell & Dutton), FIG. 2; conditions: 0.005-20 μg/ml tested; 4 days culture with 1×10^6 sheep red blood cells
Description: The action of a compound of the invention on the antibody-producing system with respect to sheep red blood cells was investigated on the basis of the mouse's spleen cell culture according to the Mishell & Dutton's method* and its modification**.
**Click, R. E., L. Benck & B. J. Alter: Cellular Immunol. 3: 156-160, 1972.

[4] = Solubility in water of salts; format: physicochemical; conditions: hydrochloride
Acute toxicity = conditions: mouse, in vivo, ip; intraperitoneal, male mice, 7 days
Description: Typical compounds used in the immunoactivator according to the invention were each suspended in physiological salt solution and intraperitoneally administered into groups of male mice, each consisting of 5 mice, followed by breeding and observing for 7 days.

[5] = Mus musculus, Macrophage, read-out: T/C (CFU-C)

O=Cc1ccc(C2Oc3ccccc3C3SCCN23)cc1 (stereo not shown) [Compound No. 3, 4-(2,3-dihydro-5H,10bH-thiazolo[3,2-c][1,3]benzoxadine-5-yl)benzaldehyde]
Blasting reaction, FIGS. 3a and 3b (in words) (splenic cells; 10 μg/ml compound, Con A or LSP 0.5-8 μg/ml): potentiate the blasting reaction | Stimulatory index Con A vs LPS, FIG. 4 (in words) (splenic cells; 10 μg/ml compound, calculated from FIGS. 3a and 3b): the Con A which is T-cell mitogen is more greatly acted with the compound than the LPS | Blasting reaction caused by the lectins (in words) (splenic cells; 10 μg/ml, Con A and LPS): accelerate the blasting reaction caused by the lectins including either of Con A and LPS | 3H-thymidine incorporation into splenic cells (splenic cells; compound 5 μg/ml, Con A (0.5 μg/ml)): 2131 cpm/culture | 3H-thymidine incorporation into splenic cells (splenic cells; compound 5 μg/ml, LSP (0.5 μ/ml)): 1068 cpm/culture | 3H-thymidine incorporation into splenic cells (splenic cells; compound 5 μg/ml, no lectin): 148 cpm/culture | 3H-thymidine incorporation into splenic cells (splenic cells; compound 10 μg/ml, Con A (0.5 μg/ml)): 9982 cpm/culture | 3H-thymidine incorporation into splenic cells (splenic cells; compound 10 μg/ml, LSP (0.5 μ/ml)): 4007 cpm/culture | 3H-thymidine incorporation into splenic cells (splenic cells; compound 10 μg/ml, no lectin): 811 cpm/culture | 3H-thymidine incorporation into splenic cells (splenic cells; compound 20 μg/ml, Con A (0.5 μg/ml)): 1267 cpm/culture | 3H-thymidine incorporation into splenic cells (splenic cells; compound 20 μg/ml, LSP (0.5 μ/ml)): 665 cpm/culture | 3H-thymidine incorporation into splenic cells (splenic cells; compound 20 μg/ml, no lectin): 105 cpm/culture | Incorporation of 3H-thymidine without lectin (in words) (splenic cells; culture free of any lectin): more or less expedites the incorporation of ^3 H-thymidine into the splenic cells | Time of administration after stimulation of antigen giving maximum potentiation ([1]; 100 μg/mouse oral): 1 to 2 days | Number of antibody-producing cells over non-administered groups (in words, FIG. 1) ([1]; 100 μg/mouse oral at day 0, 1, 2 or 3 after immunization): increased numbers of antibody-producing cells over the non-administered groups | Phagocytosis of macrophage (in words) (peritoneal macrophages; 1 μg-100 μg/mouse): improve the phagocytosis of macrophage | T/C (phagocytosis of macrophage) (peritoneal macrophages; 1 μg/mouse): 127% | T/C (phagocytosis of macrophage) (peritoneal macrophages; 10 μg/mouse): 133% | T/C (phagocytosis of macrophage) (peritoneal macrophages; 100 μg/mouse): 137% | T/C (phagocytosis of macrophage) (peritoneal macrophages; 1000 μg/mouse): 115% | Delayed-type hypersensitivity vs non-administered control (in words) ([2]; 4 μg to 1 mg/mouse): more pronounced potentiation on the delayed-type hypersensitivity than the non-administered control groups | T/C (sole swelling) ([2]; 4 μg/mouse): 231% | Thickness of Sole Swelling (± S.D.) ([2]; 4 μg/mouse): 14.8 ± 1.1 × 0.1 mm | T/C (sole swelling) ([2]; 16 μg/mouse): 150% | Thickness of Sole Swelling (± S.D.) ([2]; 16 μg/mouse): 9.6 ± 1.0 × 0.1 mm | T/C (sole swelling) ([2]; 62 μg/mouse): 181% | Thickness of Sole Swelling (± S.D.) ([2]; 62 μg/mouse): 11.6 ± 1.6 × 0.1 mm | T/C (sole swelling) ([2]; 250 μg/mouse): 198% | Thickness of Sole Swelling (± S.D.) ([2]; 250 μg/mouse): 12.7 ± 1.7 × 0.1 mm | T/C (sole swelling) ([2]; 1000 μg/mouse): 208% | Thickness of Sole Swelling (± S.D.) ([2]; 1000 μg/mouse): 13.3 ± 1.3 × 0.1 mm | Number of CFU-C (±S.D.) (myeloid cells; 0.001 μg/ml): 140 ± 6 | Number of CFU-C (±S.D.) (myeloid cells; 0.01 μg/ml): 156 ± 9 | Number of CFU-C (±S.D.) (myeloid cells; 0.1 μg/ml): 189 ± 3 | Number of CFU-C (±S.D.) (myeloid cells; 1 μg/ml): 221 ± 6 | Number of CFU-C (±S.D.) (myeloid cells; 10 μg/ml): 144 ± 16 | Production of CFU-C (in words) (myeloid cells; 0.1 to 1 μg/ml): remarkably potentiate the production of CFU-C | activity at 0.001 µg/mL (myeloid cells; [5]): 103% | activity at 0.01 µg/mL (myeloid cells; [5]): 115% | activity at 0.1 µg/mL (myeloid cells; [5]): 139% | activity at 1 µg/mL (myeloid cells; [5]): 163% | activity at 10 µg/mL (myeloid cells; [5]): 106% | Antibody production (in words) ([3]; 100-400 μg/mouse): potentiate the antibody production | T/C (antibody-producing cells) ([3]; 0.4 μg/mouse): 106% | Number of antibody-producing cells/spleen (average value) ([3]; 0.4 μg/mouse): 221,130 | T/C (antibody-producing cells) ([3]; 1.6 μg/mouse): 104% | Number of antibody-producing cells/spleen (average value) ([3]; 1.6 μg/mouse): 217,890 | T/C (antibody-producing cells) ([3]; 6.2 μg/mouse): 91% | Number of antibody-producing cells/spleen (average value) ([3]; 6.2 μg/mouse): 189,216 | T/C (antibody-producing cells) ([3]; 25 μg/mouse): 84% | Number of antibody-producing cells/spleen (average value) ([3]; 25 μg/mouse): 176,040 | T/C (antibody-producing cells) ([3]; 100 μg/mouse): 191% | Number of antibody-producing cells/spleen (average value) ([3]; 100 μg/mouse): 398,520 | T/C (antibody-producing cells) ([3]; 400 μg/mouse): 148% | Number of antibody-producing cells/spleen (average value) ([3]; 400 μg/mouse): 308,610 | Concentration range of significant potentiation of the antibody-producing action (FIG. 2) (mouse's spleen cells): 0.3 to 5 µg/mL

O=Cc1ccc(C2Oc3ccccc3C3SCCN23)cc1 (stereo not shown) [hydrochloride of the compound No. 3, 4-(2,3-dihydro-5H,10bH-thiazolo[3,2-c][1,3]benzoxadine-5-yl)benzaldehyde (Compound No. 3) hydrochloride]
Solubility in water or physiological salt solution (in words) [4]: soluble in water or physiological salt solution

c1ccc(C2Oc3ccccc3C3SCCN23)cc1 (stereo not shown) [Compound No. 1]
LD50 at 168 h (Acute toxicity): 500 mg/kg
